Values of other authors in patent publication US11203597B2, “Crystalline spirocyclic compound, a dosage form containing, a method for using in treatment of disease, and a method for recrystallizing” (Altavant Sciences GmbH, priority 2018, dated 2021).

Target: T1, TPH1 (Mus musculus, UniProt P17532)
T1 construct: host or cells: mice (in vivo)
T1 sequence (P17532 1-447): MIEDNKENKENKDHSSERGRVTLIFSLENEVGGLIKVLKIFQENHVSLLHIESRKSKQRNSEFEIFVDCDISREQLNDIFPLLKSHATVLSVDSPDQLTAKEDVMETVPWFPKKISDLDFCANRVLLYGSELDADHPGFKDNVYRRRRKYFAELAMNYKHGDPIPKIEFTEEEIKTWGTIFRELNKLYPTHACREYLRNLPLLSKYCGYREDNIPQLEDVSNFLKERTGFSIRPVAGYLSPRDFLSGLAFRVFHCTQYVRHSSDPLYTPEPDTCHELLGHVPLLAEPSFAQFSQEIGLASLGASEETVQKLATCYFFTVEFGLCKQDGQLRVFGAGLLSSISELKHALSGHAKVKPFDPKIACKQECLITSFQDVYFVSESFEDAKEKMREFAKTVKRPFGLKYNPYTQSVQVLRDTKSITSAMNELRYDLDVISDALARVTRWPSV
Settings: U.S. Pat. No. 9,199,994, Example 63i and Table 27; cited from earlier work

## CCOC(=O)[C@@H]1CC2(CCN(c3cc(O[C@H](c4ccc(Cl)cc4-c4ccccc4)C(F)(F)F)nc(N)n3)CC2)CN1 [(S)-ethyl 8-(2-amino-6-((R)-1-(5-chloro-[1,1′-biphenyl]-2-yl)-2,2,2-trifluoroethoxy)pyrimidin-4-yl)-2,8-diazaspiro[4.5]decane-3-carboxylate]
  efficacy in inhibiting TPH1 in mice: demonstrated
